{"source": "patent EP0060994A1", "about": "“Bis-hydroxyethylmercapto-1,10-decane derivative, process for its preparation, and pharmaceutical compositions containing it” (LABORATORI PROPHIN S.p.A., priority 1981, dated 1982)", "key": {"[1]": {"tested_on": "aus dem Epydimalgewebe der Ratten isolierten und in vitro inkubierten Fettzellen", "experiment": "tissue or blood", "conditions": "0.5 h", "text": "Die in der untenanliegenden Tabelle hervorgebrachten Resultate wurden auf, aus dem Epydimalgewebe der Ratten isolierten und in vitro inkubierten Fettzellen durchgeführt, wobei die Befreiung von Glyzerol als Parameter der Lypolysis in Anbetracht gezogen wurde.\nDie spontane Lypolysis in Abwesenheit von Arzneimitteln wurde als Vergleichstermin in Anbetracht gezogen.\nDie Hemmungsprozentualen beziehen sich auf die spontane (erste Spalte), von Epynephrin induzierte (zweite Spalte) und von Theophyllin induzierte (dritte Spalte) Lypolysis."}, "[2]": {"tested_on": "Lypolysis", "conditions": "in the presence of zyklischem AMP-dibutyrat; cited from earlier work"}, "[3]": {"tested_on": "Maus (Swissstamm)", "conditions": "mouse, oral, same experimental conditions; literature value; cited from earlier work"}, "[4]": {"conditions": "read-out: Lypolysis +Epynephrin 10^-6M"}, "[5]": {"conditions": "read-out: Lypolysis +Theophyllin 3x10^-4M"}}, "note": "Read-outs that look alike come from different tables or passages of the source."}
{"smiles": "CNCC(O)c1ccc(O)c(O)c1", "note": "(stereo not drawn) [Epynephrin]", "values": [{"measurement": "fold induction at 1 µM", "setting": "[1]; read-out: von Epynephrin in Vergleich mit der spontanen Lypolysis induzierte Zunahme", "result": 12.8}]}
{"smiles": "OCc1cccnc1", "note": "[N, Nicotinol]", "values": [{"measurement": "inhibition at 2000 µM", "setting": "[1]; [4]", "result": 38, "unit": "%"}, {"measurement": "inhibition at 200 µM", "setting": "[1]; [5]", "result": 37, "unit": "%"}, {"measurement": "inhibition at 2000 µM", "setting": "[1]; [5]", "result": 60, "unit": "%"}, {"measurement": "inhibition at 200 µM", "setting": "[1]; read-out: Lypolysis Spontane", "result": 60, "unit": "%"}, {"measurement": "inhibition at 2000 µM", "setting": "[1]; read-out: Lypolysis Spontane", "result": 89, "unit": "%"}]}
{"smiles": "OCCSCCCCCCCCCCSCCO", "note": "[T, Thiadenol]", "values": [{"measurement": "in vitro lypolysishemmende Wirkung", "setting": "[2]", "result": "lypolysishemmende Wirkung"}, {"measurement": "LD50-Wert", "setting": "[3]", "result": 10000, "unit": "mg/kg"}, {"measurement": "inhibition at 1000 µM", "setting": "[1]; [4]", "result": 33, "unit": "%"}, {"measurement": "inhibition at 100 µM", "setting": "[1]; [5]", "result": 34, "unit": "%"}, {"measurement": "inhibition at 1000 µM", "setting": "[1]; [5]", "result": 47, "unit": "%"}]}
{"smiles": "O=C(OCCSCCCCCCCCCCSCCOC(=O)OCc1cccnc1)OCc1cccnc1", "note": "[TN, Gemischtes Doppelcarbonat des Bis-hydroxyethylmercapto-1,10-decans und 3-Pyridylmethanols]", "values": [{"measurement": "inhibition at 100 µM", "setting": "[1]; [4]", "result": 34, "unit": "%"}, {"measurement": "inhibition at 1000 µM", "setting": "[1]; [4]", "result": 58, "unit": "%"}, {"measurement": "inhibition at 100 µM", "setting": "[1]; [5]", "result": 30, "unit": "%"}, {"measurement": "inhibition at 1000 µM", "setting": "[1]; [5]", "result": 69, "unit": "%"}, {"measurement": "inhibition at 100 µM", "setting": "[1]; read-out: Lypolysis Spontane", "result": 70, "unit": "%"}, {"measurement": "inhibition at 1000 µM", "setting": "[1]; read-out: Lypolysis Spontane", "result": 84, "unit": "%"}]}
{"smiles": "Cn1c(=O)c2[nH]cnc2n(C)c1=O", "note": "[Theophyllin]", "values": [{"measurement": "fold induction at 300 µM", "setting": "[1]; read-out: von Theophyllin in Vergleich mit der spontanen Lypolysis induzierte Zunahme", "result": 7.6}]}
